Source: paper PMC12396409, “Screening and hit evaluation of a microbial metabolite library against the pathogenic Plasmodium falciparum and Toxoplasma gondii parasites” (International Journal for Parasitology: Drugs and Drug …, 2025)
Where two headings read alike, the source gives them in different places.

Assays:
[1] = test system: T. gondii RH strain (RH-Tub-eYFP) tachyzoites; test: microbe, parasite or virus in culture; format: cell-based, Toxoplasma gondii; details: 72 h; for percent parasite growth at 2 µg/mL: Toxoplasma gondii
[2] = test system: P. falciparum 3D7 parasites; test: P. falciparum growth inhibition assay, 2-cycle (120 h treatment), delayed-death screen and dose-response; format: cell-based, Plasmodium falciparum; details: for activity at 2 µg/mL: Plasmodium falciparum, 3D7
[3] = test system: P. falciparum 3D7 parasites; test: P. falciparum growth inhibition assay, 1-cycle (72 h treatment), SYBR DNA staining (library screen at 2 μg/mL and dose-response); format: cell-based, Plasmodium falciparum; details: for activity at 2 µg/mL: Plasmodium falciparum, 3D7
[4] = library screen at 2 μg/mL, % growth, replicate 1
[5] = library screen at 2 μg/mL, % growth, replicate 2
[6] = library screen at 2 μg/mL, 120 h, % growth, replicate 1
[7] = library screen at 2 μg/mL, 120 h, % growth, replicate 2
[8] = library screen at 2 μg/mL, 72 h, % growth, replicate 1
[9] = library screen at 2 μg/mL, 72 h, % growth, replicate 2
[10] = T. gondii RH, library screen at 2 μg/mL, % growth, replicate 1
[11] = T. gondii RH, library screen at 2 μg/mL, % growth, replicate 2
[12] = P. falciparum 3D7, 120 h, library screen at 2 μg/mL, % growth, replicate 1
[13] = P. falciparum 3D7, 120 h, library screen at 2 μg/mL, % growth, replicate 2
[14] = P. falciparum 3D7, 72 h, library screen at 2 μg/mL, % growth, replicate 1
[15] = P. falciparum 3D7, 72 h, library screen at 2 μg/mL, % growth, replicate 2

## CC(/C=C/[C@H](O)[C@@H](C)/C=C/C(=O)O)=C\C[C@H]1O[C@]2(CC[C@@H]1C)CC[C@@](CCC(C)C)(OC(=O)CCC(=O)O)[C@H](/C=C/C(C)=C/C(=O)O)O2 [Reveromycin C]
[1]; T. gondii, parasite screen 2 μg/mL, % growth, replicate 1
  Tg_72h_%Growth_Rep1: 140.65%
[1]; T. gondii, parasite screen 2 μg/mL, % growth, replicate 2
  Tg_72h_%Growth_Rep2: 73.99%
[2]; P. falciparum, 120 h, parasite screen 2 μg/mL, % growth, replicate 1
  Pf_120h_%Growth_Rep1: 71.01%
[2]; P. falciparum, 120 h, parasite screen 2 μg/mL, % growth, replicate 2
  Pf_120h_%Growth_Rep2: 60.10%
[3]; P. falciparum, 72 h, parasite screen 2 μg/mL, % growth, replicate 1
  Pf_72h_%Growth_Rep1: 86.43%
[3]; P. falciparum, 72 h, parasite screen 2 μg/mL, % growth, replicate 2
  Pf_72h_%Growth_Rep2: 70.33%

## CCOCCO[C@@H]1CC[C@@H](C[C@@H](C)[C@@H]2CC(=O)[C@H](C)/C=C(\C)[C@@H](O)[C@@H](OC)C(=O)[C@H](C)C[C@H](C)/C=C/C=C/C=C(\C)[C@@H](OC)C[C@@H]3CC[C@@H](C)[C@@](O)(O3)C(=O)C(=O)N3CCCC[C@H]3C(=O)O2)C[C@H]1OC [Umirolimus, reference compound]
[1]; T. gondii, screen at 2 μg/mL, replicate 1
  Tg_72h_%Growth_Rep1: 81.37%
[1]; T. gondii, screen at 2 μg/mL, replicate 2
  Tg_72h_%Growth_Rep2: 91.74%
[2]; P. falciparum, 120 h, screen at 2 μg/mL, replicate 1
  Pf_120h_%Growth_Rep1: 49.79%
[2]; P. falciparum, 120 h, screen at 2 μg/mL, replicate 2
  Pf_120h_%Growth_Rep2: 32.58%
[3]; P. falciparum, 72 h, 2 μg/mL, mean of both replicates, growth (% of control)
  Mean: 22.90
[3]; P. falciparum, 72 h, screen at 2 μg/mL, replicate 1
  Pf_72h_%Growth_Rep1: 19.04%
[3]; P. falciparum, 72 h, screen at 2 μg/mL, replicate 2
  Pf_72h_%Growth_Rep2: 26.75%

## CN1C(=O)c2ccccc2-n2c(nc3ccccc3c2=O)[C@@]12O[C@H]2c1ccccc1 [Benzomalvin C]
[1]; [4]
  Tg_72h_%Growth_Rep1: 89.14%
[1]; [5]
  Tg_72h_%Growth_Rep2: 100.15%
[2]; [6]
  Pf_120h_%Growth_Rep1: 69.94%
[2]; [7]
  Pf_120h_%Growth_Rep2: 71.59%
[3]; [8]
  Pf_72h_%Growth_Rep1: 80.29%
[3]; [9]
  Pf_72h_%Growth_Rep2: 84.20%

## O=C(O)c1ccc[nH]1 [Pyrrole-2-carboxylic acid]
[1]; T. gondii, parasite screen 2 μg/mL, % growth, replicate 1, read-out: Tg_72h_%Growth_Rep1
  percent parasite growth at 2 µg/mL: 130%
[1]; T. gondii, parasite screen 2 μg/mL, % growth, replicate 2, read-out: Tg_72h_%Growth_Rep2
  percent parasite growth at 2 µg/mL: 86.8%
[2]; P. falciparum, 120 h, parasite screen 2 μg/mL, % growth, replicate 1, read-out: Pf_120h_%Growth_Rep1
  activity at 2 µg/mL: 88.6%
[2]; P. falciparum, 120 h, parasite screen 2 μg/mL, % growth, replicate 2, read-out: Pf_120h_%Growth_Rep2
  activity at 2 µg/mL: 136%
[3]; P. falciparum, 72 h, parasite screen 2 μg/mL, % growth, replicate 1, read-out: Pf_72h_%Growth_Rep1
  activity at 2 µg/mL: 86.7%
[3]; P. falciparum, 72 h, parasite screen 2 μg/mL, % growth, replicate 2, read-out: Pf_72h_%Growth_Rep2
  activity at 2 µg/mL: 115%

## COc1ccc2c(c1OC)C(=O)OC2C1c2cc3c(cc2CCN1C)OCO3 (stereo not shown) [BIA-H1954]
[1]; [10]
  Tg_72h_%Growth_Rep1: 92.88%
[1]; [11]
  Tg_72h_%Growth_Rep2: 95.07%
[2]; [12]
  Pf_120h_%Growth_Rep1: 145.49%
[2]; [13]
  Pf_120h_%Growth_Rep2: 80.33%
[3]; [14]
  Pf_72h_%Growth_Rep1: 81.78%
[3]; [15]
  Pf_72h_%Growth_Rep2: 87.48%

## COC1CC(OC2C(C)OC(OC3C(C)=CCC4CC(CC5(CCC(C)C(C(C)C)O5)O4)OC(=O)C4C=C(C)C(O)C5OCC(=CC=CC3C)C45O)CC2OC)OC(C)C1O (stereo not shown) [BIA-I1117]
[1]; [10]
  Tg_72h_%Growth_Rep1: 121.89%
[1]; [11]
  Tg_72h_%Growth_Rep2: 92.41%
[2]; [12]
  Pf_120h_%Growth_Rep1: 88.89%
[2]; [13]
  Pf_120h_%Growth_Rep2: 109.63%
[3]; [14]
  Pf_72h_%Growth_Rep1: 83.64%
[3]; [15]
  Pf_72h_%Growth_Rep2: 117.79%

## CC1(C)OC2CC(=O)OCC23C1CC(=O)C1(C)C3CCC2(C)C(c3ccoc3)OC(=O)C3OC321 (stereo not shown) [BIA-L1755]
[1]; [10]
  Tg_72h_%Growth_Rep1: 135.94%
[1]; [11]
  Tg_72h_%Growth_Rep2: 85.64%
[2]; [12]
  Pf_120h_%Growth_Rep1: 93.20%
[2]; [13]
  Pf_120h_%Growth_Rep2: 110.15%
[3]; [14]
  Pf_72h_%Growth_Rep1: 83.85%
[3]; [15]
  Pf_72h_%Growth_Rep2: 113.59%

## O=C(/C=C/C=C/C=C/C1CCCCC1)NC1=C[C@@](O)(/C=C/C=C/C=C/C(=O)NC2=C(O)CCC2=O)[C@@H]2O[C@@H]2C1=O [Asukamycin]
[1]; [4]
  Tg_72h_%Growth_Rep1: 161.41%
[1]; [5]
  Tg_72h_%Growth_Rep2: 93.58%
[2]; [6]
  Pf_120h_%Growth_Rep1: 67.03%
[2]; [7]
  Pf_120h_%Growth_Rep2: 82.56%
[3]; [8]
  Pf_72h_%Growth_Rep1: 79.58%
[3]; [9]
  Pf_72h_%Growth_Rep2: 78.85%
